Experimental data published in patent US9237744B2, “Preservative solution for cells, tissues and organs containing rare sugar and preservative method thereof” (NATIONAL UNIVERSITY CORPORATION KAGAWA UNIVERSITY, priority 2004, dated 2016).

Columns and labels:
[1] = test system: Hela, OVCAR-3, HaCaT, HFB and NIH3T3 cells; assay: Cell growth after thawing of cells freeze-preserved at optimum concentrations, MTT assay (Example 2); assay type: cell-based, human, mouse; details: freeze-preserved 24 hours at optimum concentration, versus other cases (FIG. 8)
Method: (§1) 1. Cells used: Hela (human cervical cancer), OVCAR-3 (human ovarian cancer), HaCaT (human skin keratinocyte), HFB (human fibroblast) and NIH3T3 (mouse fibroblast). Saccharides D-allose and the like were added to culture medium, Cell Banker (commercially available preservative solution) and DMSO at concentrations of 0.2, 0.4, 0.6, 0.8 and 1M. Monosaccharides such as D-glucose, D-fructose, D-mannose and D-galactose which are present in nature in large quantities and D-allose, D-altrose, D-psicose, L-psicose, D-sorbose, L-sorbose, D-tagatose, L-tagatose and L-fructose as rare sugars were used. Further, trehalose as disaccharide was used. The cells frozen with D-allose were freeze-preserved at −80° C. and in liquid nitrogen for 24 hours, 1 week and 4 weeks. 2) Cell growth: The cells were freeze-preserved with D-allose and trehalose at optimum concentrations for 24 hours, thawed, and spread on a 96-well plate such that the concentration was 0.5-1×10^4 cells/well/0.1 ml. After a prescribed period of time, the cell growth was measured by MTT assay.

HFB (human fibroblast) = assay: Cell growth after thawing of freeze-preserved cells, MTT assay (Example 1); assay type: cell-based; details: culture medium plus sugar, in comparison with other cases (FIG. 2)
Method: (§2) 1. Cells used: Hela (human cervical cancer), OVCAR-3 (human ovarian cancer), HuH-7 (human liver cancer), HaCaT (human skin keratinocyte), HFB (human fibroblast) and NIH3T3 (mouse fibroblast). Saccharides D-allose and the like were added to culture medium, Cell Banker (commercially available preservative solution) and DMSO at concentrations of 25 mM and 50 mM. Monosaccharides such as D-glucose, D-fructose, D-mannose and D-galactose which are present in nature in large quantities and D-allose, D-psicose, D-altrose, allitol, D-talitol and L-sorbose as rare sugars were used. Further, trehalose as disaccharide was used. The cells were preserved for 24 hours by being frozen at −80° C. 2) Cell growth: One day later, the cells were thawed, and 0.25˜2×10^4 cells/well were spread on 96-well plate with 0.1 mL medium. After a prescribed period of time, the cell growth was measured by MTT assay.

[2] = test system: HFB cells and NIH3T3 cells; assay: Proliferation ability after freeze-preservation with Cell Banker containing rare sugar (Example 1); assay type: cell-based, human, mouse; details: sugar added to Cell Banker, versus Cell Banker alone (FIG. 3)
Method: as §2, with “assay. 3) Then, the rare sugar was added to Cell Banker which was widely used for freeze-preservation of cells, and an effect of preservability was comparatively studied.” for “assay.”

[3] = test system: Hela, OVCAR-3, HaCaT, HFB and NIH3T3 cells; assay: Survival rate of cells after freeze-preservation at high sugar concentration, trypan blue (Example 2); assay type: cell-based, human, mouse; details: sugar-containing medium in comparison with medium alone (FIG. 7)
Method: as §1, with “1) Survival rate of cells:” for “2) Cell growth:”, “were” for “were freeze-preserved with D-allose and trehalose at optimum concentrations for 24 hours,”, “the survival rate was estimated by” for “spread on”, “trypan blue dying method.” for “96-well plate such that the concentration was 0.5-1×10^4 cells/well/0.1 ml. After a prescribed period of time, the cell growth was measured by MTT assay.”

With `OC[C@H]1O[C@H](O[C@H]2O[C@H](CO)[C@@H](O)[C@H](O)[C@H]2O)[C@H](O)[C@@H](O)[C@@H]1O` [trehalose, reference compound] the “growth rate of cells after thawing” value [1] was “nearly the same effect was obtained”, the “growth rate of cells after thawing” value (HFB (human fibroblast)) was “nearly the same effect was obtained” and the “proliferation ability after freeze-preservation” value [2] was “nearly the same effect was obtained”. For the same compound, the “number of cells survived (trypan blue dying)” value [3] was “the same”.
